# Paper PMC8216281, “RNA pull-down confocal nanoscanning (RP-CONA) detects quercetin as pri-miR-7/HuR interaction inhibitor that decreases α-synuclein levels” (Nucleic Acids Research, 2021)
# How the values were obtained:
# HuR [1] = target: T1, HuR (Homo sapiens, UniProt Q15717); experiment: RP-CONA on-bead confocal assay: inhibition of mCherry-HuR binding to pri-miR-7-1-CTL RNA in cell lysate; confirmed by RNA pull-down/western blot; type: biochemical
# T1 construct: gene ELAVL1; mCherry-HuR (HuR open reading frame), overexpressed in HuR KO HEK293T lysate
# HuR [2] = target: T1, HuR; experiment: RP-CONA on-bead confocal assay: inhibition of mCherry-HuR binding to pri-miR-7-1-CTL RNA in cell lysate; confirmed by RNA pull-down/western blot and RIP in cells; type: biochemical
# T1 sequence (Q15717 2-326): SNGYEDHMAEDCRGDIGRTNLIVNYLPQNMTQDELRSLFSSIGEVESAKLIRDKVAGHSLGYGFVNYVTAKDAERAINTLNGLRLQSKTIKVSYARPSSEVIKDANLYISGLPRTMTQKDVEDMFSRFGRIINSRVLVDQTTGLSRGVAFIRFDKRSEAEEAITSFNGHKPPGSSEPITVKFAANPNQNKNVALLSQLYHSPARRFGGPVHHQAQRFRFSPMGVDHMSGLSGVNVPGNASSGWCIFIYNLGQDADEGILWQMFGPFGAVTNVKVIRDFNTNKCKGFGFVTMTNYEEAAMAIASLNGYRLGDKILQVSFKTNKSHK
IC50 (HuR [1]) [µM],Compound,IC50 (HuR [2]) [µM]
2.03 ± 0.25,O=c1cc(-c2ccc(O)c(O)c2)oc2cc(O)cc(O)c12 [luteolin],
,O=c1c(O)c(-c2ccc(O)c(O)c2)oc2cc(O)cc(O)c12 [quercetin],2.15 ± 0.16
